Values after ≈ are worked out from the molar mass of the structure shown.
How the values were obtained:
Type in all cases: cell-based
E. coli ΔtolC (JW5503) = details: for MIC E. coli ΔtolC: efflux deficient E. coli ΔtolC
Procedure: (§1) The compounds synthesized, shown in Table 1, were evaluated against Gram-positive and Gram-negative reference strains (S. aureus 29213 and E. coli MG1655, respectively), as well as an efflux deficient E. coli strain (ΔtolC, JW5503).
(§2) Bacterial strains. S. aureus ATCC 29213, E. coli MG1655, E. coli BAA-2340, E. coli BAA-2469, E. coli BAA-2471, E. cloacae BAA-2341, E. cloacae BAA-2468, K. pneumoniae BAA-1705, K. pneumoniae BAA-2342, K. pneumoniae BAA-2470, K. pneumoniae BAA-2472, and K. pneumoniae BAA-2473 were obtained from ATCC. E. coli JW5503 and E. coli JW3596 were obtained from the KEIO Collection. E. cloacae ATCC 29893 was provided by W. van der Donk (UIUC). E. coli AR-0346, E. coli AR-0349, E. coli AR-0493, E. coli AR-0495, and K. pneumoniae AR-0347 were obtained from the CDC and FDA AR Isolate Bank. E. coli F20987, E. coli M66623, E. cloacae S28901.1, K. pneumoniae M14723, K. pneumoniae M67198, K. pneumoniae M67297, K. pneumoniae S20595, K. pneumoniae S47889, A. baumannii W41979, A. baumannii F19521, A. baumannii M13100, and A. baumannii WO22 were obtained from the University of Illinois Chicago Medical School. A. baumannii KB304, A. baumannii KB343, and A. baumannii KB357 were provided by J. Quale.
(§3) Antimicrobial susceptibility tests. Susceptibility testing was performed in biological triplicate, using the micro-dilution broth method as outlined by the Clinical and Laboratory Standards Institute. Bacteria were cultured with cation-adjusted Muller-Hinton broth (Sigma-Aldrich, Cat# 90922) in round-bottom 96-well plates (Corning, Cat# 3788). Human serum (pooled gender, 0.2 μm filtered) was purchased from BioIVT (Hicksville, NY).

S. aureus ATCC 29213 = experiment: Antimicrobial susceptibility test (MIC), micro-dilution broth; details: S. aureus ATCC 29213
Text: as §2, §3

E. coli MG1655 = experiment: Antimicrobial susceptibility test (MIC)
Text: as §2, §3

K. pneumoniae AR 0066 = experiment: microbe, parasite or virus in culture; details: clinical isolate
Procedure: as §3

A. baumannii AR 0299 = experiment: microbe, parasite or virus in culture; details: clinical isolate
Procedure: as §3

E. coli AR 0085 = experiment: microbe, parasite or virus in culture; details: clinical isolate
Procedure: as §3

A. baumannii AR 0273 = experiment: microbe, parasite or virus in culture; details: clinical isolate
Procedure: as §3

E. coli AR 0048 = experiment: microbe, parasite or virus in culture; details: clinical isolate
Procedure: as §3

K. pneumoniae AR 0113 = experiment: microbe, parasite or virus in culture; details: clinical isolate
Procedure: as §3

A. baumannii AR 0033 = experiment: microbe, parasite or virus in culture; details: clinical isolate
Procedure: as §3

A. baumannii AR 0313 = experiment: microbe, parasite or virus in culture; details: clinical isolate
Procedure: as §3

K. pneumoniae AR 0560 = experiment: microbe, parasite or virus in culture; details: clinical isolate
Procedure: as §3

K. pneumoniae BAA 2472 = experiment: microbe, parasite or virus in culture; details: clinical isolate
Procedure: as §1, §2, §3

| Compound | MIC E. coli ΔtolC (E. coli ΔtolC (JW5503)) [µg/mL] | MIC S. aureus 29213 (S. aureus ATCC 29213) [µg/mL] | MIC E. coli MG1655 (E. coli MG1655) [µg/mL] | other results |
| --- | --- | --- | --- | --- |
| Cc1c(CN(C)C(=O)C=Cc2cnc3c(c2)CC2(CCC(N)CC2)C(=O)N3)oc2ccccc12 (mixture of isomers) [(±)-8] | 0.062 | 0.016 | 16 | – |
| Cc1c(CN(C)C(=O)C=Cc2cnc3c(c2)CC2(CCC(CN)CC2)C(=O)N3)oc2ccccc12 (mixture of isomers) [(±)-9] | 0.062 | 0.031 | 16 | – |
| Cc1c(CN(C)C(=O)/C=C/c2cnc3c(c2)CC(CN)C(=O)N3)oc2ccccc12.Cl (racemic) | 0.125 | 0.031 | 8 | – |
| Cc1c(CN(C)C(=O)/C=C/c2cnc3c(c2)CC(CCN)C(=O)N3)oc2ccccc12.Cl (racemic) | 0.062 | 0.016 | 8 | – |
| Cc1c(CN(C)C(=O)/C=C/c2cnc3c(c2)CCC(CCN)C(=O)N3)oc2ccccc12 (racemic) [(±)-13] | 0.125 (≈ 0.289 µM) | 0.062 (≈ 0.143 µM) | 32 (≈ 74 µM) | – |
| Cc1c(CN(C)C(=O)/C=C/c2cnc3c(c2)CCC(N)C(=O)N3)oc2ccccc12 (racemic) [drawing 87] | 0.031 (≈ 0.0766 µM) | 0.016 (≈ 0.0396 µM) | 4 (≈ 9.89 µM) | – |
| Cc1c(CN(C)C(=O)/C=C/c2cnc3c(c2)CCC(N)C(=O)N3)oc2ccccc12 (racemic) [drawing 108] | 0.031 (≈ 0.0766 µM) | 0.016 (≈ 0.0396 µM) | 4 (≈ 9.89 µM) | – |
| Cc1c(CN(C)C(=O)/C=C/c2cnc3c(c2)CC(N)C(=O)N3)oc2ccccc12.Cl (racemic) [reference compound] | 0.062 | 0.03125 | 4 | – |
| Cc1c(CN(C)C(=O)/C=C/c2ccc3c(c2)CCC(N)C(=O)N3)oc2ccccc12 (single isomer, unassigned) [Isomer 1] | – | – | – | MIC K. pneumoniae AR 0066 (K. pneumoniae AR 0066): >32 µg/mL; MIC A. baumannii AR 0299 (A. baumannii AR 0299): >32 µg/mL; MIC E. coli AR 0085 (E. coli AR 0085): >32 µg/mL; MIC A. baumannii AR 0273 (A. baumannii AR 0273): >32 µg/mL; MIC E. coli AR 0048 (E. coli AR 0048): >32 µg/mL; MIC K. pneumoniae AR 0113 (K. pneumoniae AR 0113): >32 µg/mL; MIC A. baumannii AR 0033 (A. baumannii AR 0033): >32 µg/mL; MIC A. baumannii AR 0313 (A. baumannii AR 0313): >32 µg/mL; MIC K. pneumoniae AR 0560 (K. pneumoniae AR 0560): >32 µg/mL; MIC K. pneumoniae BAA 2472 (K. pneumoniae BAA 2472): >32 µg/mL |
| Cc1c(CN(C)C(=O)/C=C/c2ccc3c(c2)CCC(N)C(=O)N3)oc2ccccc12 (single isomer, unassigned) [Isomer 2] | – | – | – | MIC K. pneumoniae AR 0066 (K. pneumoniae AR 0066): 4 µg/mL (≈ 9.91 µM); MIC A. baumannii AR 0299 (A. baumannii AR 0299): 2 µg/mL (≈ 4.96 µM); MIC E. coli AR 0085 (E. coli AR 0085): 2 µg/mL (≈ 4.96 µM); MIC A. baumannii AR 0273 (A. baumannii AR 0273): 4 µg/mL (≈ 9.91 µM); MIC E. coli AR 0048 (E. coli AR 0048): 4 µg/mL (≈ 9.91 µM); MIC K. pneumoniae AR 0113 (K. pneumoniae AR 0113): 8 µg/mL (≈ 19.8 µM); MIC A. baumannii AR 0033 (A. baumannii AR 0033): 2 µg/mL (≈ 4.96 µM); MIC A. baumannii AR 0313 (A. baumannii AR 0313): 4 µg/mL (≈ 9.91 µM); MIC K. pneumoniae AR 0560 (K. pneumoniae AR 0560): 4 µg/mL (≈ 9.91 µM); MIC K. pneumoniae BAA 2472 (K. pneumoniae BAA 2472): 4 µg/mL (≈ 9.91 µM) |
| Cc1c(CN(C)C(=O)/C=C/c2cnc3c(c2)CCC(N)C(=O)N3)oc2ccccc12 (single isomer, unassigned) [drawing 109] | > 1 | 0.125 to 0.250 | > 32 | % @ 1 (in brackets after MIC) (E. coli ΔtolC (JW5503); E. coli ΔTolC, 1 μg/mL): 50%; % @ 32 (in brackets after MIC) (E. coli MG1655; E. coli MG1655, 32 μg/mL): 20% |
| Cc1c(CN(C)C(=O)/C=C/c2cnc3c(c2)CCC(N)C(=O)N3)oc2ccccc12 (single isomer, unassigned) [drawing 110] | 0.031 (≈ 0.0766 µM) | 0.004 to 0.008 | 2 (≈ 4.94 µM) | % @ 0.016 (in brackets after MIC) (E. coli ΔtolC (JW5503); E. coli ΔTolC, 0.016 μg/mL): 40-95% |
| Cc1c(CN(C)C(=O)/C=C/c2cnc3c(c2)CCC(=O)N3)oc2ccccc12 [drawing 82, reference compound] | 0.031 (≈ 0.0826 µM) | 0.008 to 0.016 | – | – |
